# Laboratory results reported in patent publication US5286729A, “Angiotensin II receptor blocking 2,3,6 substituted quinazolinones” (American Cyanamid Company, priority 1993, dated 1994).
# Molecular target: T1, Angiotensin II Receptor (Bos taurus, UniProt P25104)
# T1 construct: The brownish tissue forming the adrenal cortex is scraped off and finely minced with scissors before homogenization; from tissue; host or cells: beef adrenal cortex, microsomal (100,000 x g) membranes; adrenals from a local slaughter house (Maxwell-Cohen)
# T1 sequence (P25104 1-359): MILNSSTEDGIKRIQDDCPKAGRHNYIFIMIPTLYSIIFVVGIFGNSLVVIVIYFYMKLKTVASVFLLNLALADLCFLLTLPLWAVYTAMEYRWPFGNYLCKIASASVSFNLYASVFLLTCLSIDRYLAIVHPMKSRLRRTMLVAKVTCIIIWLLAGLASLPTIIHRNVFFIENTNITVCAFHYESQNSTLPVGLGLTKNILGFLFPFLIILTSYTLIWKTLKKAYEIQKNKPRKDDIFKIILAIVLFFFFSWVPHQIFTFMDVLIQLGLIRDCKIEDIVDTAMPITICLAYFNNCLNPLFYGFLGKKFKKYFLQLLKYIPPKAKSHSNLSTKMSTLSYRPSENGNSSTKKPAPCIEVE
# Assay: Receptor Binding Assay, binding of [125I](Sar1,Ile8)AngII to beef adrenal cortex membranes
# Conditions: beef adrenal membranes; [125I](Sar1,Ile8)AngII; 60 min, room temperature, pH 7.4
# From the text: Beef adrenals are obtained from a local slaughter house (Maxwell-Cohen). [^125 I](Sar^1,Ile^8)AngII, S.A. 2200 Ci/mmole, is purchased from Dupont (NEN®, Boston, Mass.).
# Approximately sixteen (16) to twenty (20) beef adrenal glands are processed as follows: fresh adrenal glands received on crushed ice are cleaned of fatty tissues and the tough membranes encapsulating the glands are removed and discarded. The brownish tissue forming the adrenal cortex is scraped off and finely minced with scissors before homogenization. Care is taken to avoid contamination with medullary tissue during dissection. The scraped cortices are suspended in twenty volumes of an ice-cold buffer medium consisting of 10 mM Tris.HCl (pH 7.4 at 22° C.) and containing 1.0 mM EDTA and 0.2M sucrose. Unless otherwise indicated, all subsequent operations are done at 4° C. […] The homogenate is centrifuged first at low speed (3,000×g) for 10 min. […] The pelleted membrane is reconstituted in 50.0 mM Tris.HCl buffer containing 0.1 mM of phenylmethylsulfonyl fluoride (PMSF) to give approximately a protein concentration of 2.5 mg per ml of tissue suspension. The membrane preparation is finally aliquoted in 1.0 ml volumes and stored at -70° C. until use in the binding assays. […]
compound,measurement,value
"CCCCc1nc2ccc(COc3ccccn3)cc2c(=O)n1Cc1ccc(-c2ccccc2-c2nnn[nH]2)cc1.Cl [Example 12, 2-Butyl-6-[(2-pyridinyloxy)methyl]-3-[[2'-(1H-tetrazol-5-yl)[1,1'-biphenyl]-4-yl]methyl]-4(3H)-quinazolinone monohydrochloride]",IC50,130 nM
